Where “and” joins values, the source holds several entries; their conditions need not be identical. Identical values can stand only once.
Columns and labels:
Assay in all cases: Cell proliferation combination study (CellTiter-Glo)
Format in all cases: cell-based
SK0V3 = test system: SK0V3
Method: (§1) The proliferation assay uses the CellTiter-Glo Luminescent Cell Viability Assay System (commercially available from Promega) to determine the cell number of viable cells in culture based on quantitation of the ATP present, which signals the presence of metabolically active cells.
(§2) The cells are plated in 96-well plate at 2000 cells/well in volume of 50 μL medium (DMEM, 10% FBS, 25 mM HEPES, 1.0 mM Sodium Pyruvate, and 0.1 mM Non Essential Amino Acids) except column 1 with medium only as blank control. The plates are incubated overnight at 37° C. and 5% CO2. On the next day, compound stocks are prepared at 40 mM in DMSO (500×) and serially diluted in DMSO in a 96-well round bottom polypropylene plate. Compounds are assayed at 10 concentrations in duplicate, 4 compounds per plate.
(§3) 4 μL of the serial DMSO dilutions are transferred to a 96 deep-well plate and 1 mL complete culture medium is added to create 2× stock for dosing. 50 μL of each 2× dosing stock is gently transferred to the corresponding well of the cell plate resulting in a 0.2% DMSO concentration and a 100 μL final volume. […] medium are added to the Control columns (Column 12) and background columns (Column 1). Cells are incubated with compound for at 37° C., 5% CO2 for 72 hr.
(§4) After incubation, 100 μL of the pre-prepared CellTiter-Glo reagent (Promega, Cat: G7571) is added in each well and then the cells are homogenized by mixing on an orbital shaker for 2 min and incubated at RT for 10 minutes to allow luminescent signal stabilization Luminescent raw data is recorded on Wallac Victor V plate reader and the IC50 value for each compound is generated using percent inhibition data. A four-parameter logistic curve is fit to each dose response.
(§5) Combination studies use the fixed ratio method, where the other therapeutic agent and the compound of the present invention are present in fixed ratios of concentrations corresponding to the IC50 equivalents of single agents. The read out for the combination studies is cell proliferation in respective cell lines using Cell Titer Glo reagents. Controls are processed similarly but without the compounds. Analysis of the data is done according to the method described in Zhao et. Al. (Clinical Cancer Research 10, 7994-8004, Dec. 1, 2004) utilizing an internally developed web based tool. A combination index is calculated for each cell proliferation inhibition activity level according to the equation below. Combination Index at activity level x=[Concentration of other therapeutic agent in the combination at the activity level x/ICx of the other therapeutic agent]+[Concentration of the compound of the present invention in the combination at the activity level x/ICx of the compound of the present invention]

NCI-H1975 = test system: NCI-H1975
Method: as §1, §2, §3, §4, §5

MCF-7 = test system: MCF-7
Method: as §1, §2, §3, §4, §5

A2780 = test system: A2780
Method: as §1, §2, §3, §4, §5

MDA-MB-231 = test system: MDA-MB-231
Method: as §1, §2, §3, §4, §5

RKO = conditions: with Irinotecan
Method: as §1, §2, §3, §4, §5

HCC827 = test system: HCC827
Method: as §1, §2, §3, §4, §5

H1155 = conditions: with Gemcitabine
Method: as §1, §2, §3, §4, §5

NCIH460 = test system: NCIH460
Method: as §1, §2, §3, §4, §5

AsPC1 = test system: AsPC1
Method: as §1, §2, §3, §4, §5

H1650 = test system: H1650
Method: as §1, §2, §3, §4, §5

Calu6 = test system: Calu6
Method: as §1, §2, §3, §4, §5

BxPC3 = test system: BxPC3
Method: as §1, §2, §3, §4, §5

SMILES: C[C@@H]1CC(=O)Nc2ncnc(N3CCC(c4nc(C(F)(F)F)cn4CCN4CCCC4)CC3)c21 (single isomer, unassigned) [Example 77]
- Combination Index at 50% Inhibition (SK0V3; with Cisplatin): 1.00
- Combination Index at 50% Inhibition (SK0V3; with Doxorubicin): 1.12
- Combination Index at 50% Inhibition (NCI-H1975; with Cisplatin): 0.77
- Combination Index at 50% Inhibition (NCI-H1975; with Docetaxel): 1.13
- Combination Index at 50% Inhibition (NCI-H1975; with Erlotinib): 0.47
- Combination Index at 50% Inhibition (NCI-H1975; with Gemcitabine): 0.55
- Combination Index at 50% Inhibition (NCI-H1975; with Pemetrexed): 1.73
- Combination Index at 50% Inhibition (MCF-7; with Erlotinib): 0.58
- Combination Index at 50% Inhibition (MCF-7; with Gemcitabine): 0.10
- Combination Index at 50% Inhibition (MCF-7; with Paclitaxel): 0.60
- Combination Index at 50% Inhibition (MCF-7; with Rapamycin): 0.46
- Combination Index at 50% Inhibition (MCF-7; with Tamoxifen): 0.74
- Combination Index at 50% Inhibition (A2780; with Cisplatin): 0.93
- Combination Index at 50% Inhibition (A2780; with Doxorubicin): 0.85
- Combination Index at 50% Inhibition (MDA-MB-231; with Erlotinib): 0.05
- Combination Index at 50% Inhibition (MDA-MB-231; with Gemcitabine): 0.39
- Combination Index at 50% Inhibition (MDA-MB-231; with Paclitaxel): 1.13
- Combination Index at 50% Inhibition (MDA-MB-231; with Rapamycin): 0.01
- Combination Index at 50% Inhibition (RKO): 0.83
- Combination Index at 50% Inhibition (HCC827; with Erlotinib, HCC827): 1.87
- Combination Index at 50% Inhibition (HCC827; with Gemcitabine, HCC827): 0.17
- Combination Index at 50% Inhibition (HCC827; with Rapamycin, HCC-827): 1.13
- Combination Index at 50% Inhibition (H1155): 0.43
- Combination Index at 50% Inhibition (NCIH460; with Cisplatin): 0.76 and 0.91
- Combination Index at 50% Inhibition (NCIH460; with Docetaxel): 0.82
- Combination Index at 50% Inhibition (NCIH460; with Erlotinib): 0.64
- Combination Index at 50% Inhibition (NCIH460; with Gemcitabine): 0.88
- Combination Index at 50% Inhibition (AsPC1; with Erlotinib): 0.23
- Combination Index at 50% Inhibition (AsPC1; with Gemcitabine): 0.23
- Combination Index at 50% Inhibition (AsPC1; with Rapamycin): 0.22
- Combination Index at 50% Inhibition (H1650; with Erlotinib): 0.04
- Combination Index at 50% Inhibition (H1650; with Gemcitabine): 0.43
- Combination Index at 50% Inhibition (H1650; with Rapamycin): 0.07
- Combination Index at 50% Inhibition (Calu6; with Cisplatin): 0.86
- Combination Index at 50% Inhibition (Calu6; with Docetaxel): 0.65
- Combination Index at 50% Inhibition (Calu6; with Erlotinib): 0.20
- Combination Index at 50% Inhibition (Calu6; with Gemcitabine): 1.16
- Combination Index at 50% Inhibition (Calu6; with Pemetrexed): 0.93
- Combination Index at 50% Inhibition (Calu6; with Tasisulam): 1.16
- Combination Index at 50% Inhibition (BxPC3; with Erlotinib): 0.36
- Combination Index at 50% Inhibition (BxPC3; with Gemcitabine): 1.13
- Combination Index at 50% Inhibition (BxPC3; with Rapamycin): 0.15

Reference: US8436002B2, “AKT inhibitors” (Eli Lilly and Company, priority 2009, dated 2013)
